Assay results as given in patent US20220119354A1, “DIAMINO-SUBSTITUTED PYRIDINES AND PYRIMIDINES AS HERBICIDES” (FMC Corporation, priority 2019, published 2022).

Experiments:
Type in all cases: in vivo
[1] = tested on: barnyardgrass (Echinochloa crus-galli); assay: Test A preemergence, barnyardgrass; settings: 0 to 100 scale, 0 is no effect, 100 is complete control
How it was run: (§1)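 Steps: plant seeds in loam/sand; spray soil (pre) or seedlings at 1–2 leaves, 2–10 cm (post) with compound in solvent plus surfactant; keep in greenhouse ~10 d; score injury visually against untreated controls, 0–100.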

[2] = tested on: kochia (Kochia scoparia); assay: Test A preemergence, kochia; settings: 0 to 100 scale, 0 is no effect, 100 is complete control
How it was run: as §1

[3] = tested on: ragweed (common ragweed, Ambrosia elatior); assay: Test A preemergence, ragweed; settings: 0 to 100 scale, 0 is no effect, 100 is complete control
How it was run: as §1

[4] = tested on: ryegrass, Italian (Lolium multiflorum); assay: Test A preemergence, Italian ryegrass; settings: 0 to 100 scale, 0 is no effect, 100 is complete control
How it was run: as §1

[5] = tested on: foxtail, giant (Setaria faberii); assay: Test A preemergence, giant foxtail; settings: 0 to 100 scale, 0 is no effect, 100 is complete control
How it was run: as §1

[6] = tested on: pigweed (Amaranthus retroflexus); assay: Test A preemergence, pigweed; settings: 0 to 100 scale, 0 is no effect, 100 is complete control
How it was run: as §1

[7] = tested on: barnyardgrass (Echinochloa crus-galli); assay: Test A postemergence, barnyardgrass; settings: 0 to 100 scale, 0 no effect, 100 complete control
How it was run: as §1

[8] = tested on: kochia (Kochia scoparia); assay: Test A postemergence, kochia; settings: 0 to 100 scale, 0 no effect, 100 complete control
How it was run: as §1

[9] = tested on: ragweed (common ragweed, Ambrosia elatior); assay: Test A postemergence, ragweed; settings: 0 to 100 scale, 0 no effect, 100 complete control
How it was run: as §1

[10] = tested on: ryegrass, Italian (Lolium multiflorum); assay: Test A postemergence, Italian ryegrass; settings: 0 to 100 scale, 0 no effect, 100 complete control
How it was run: as §1

[11] = tested on: foxtail, giant (Setaria faberii); assay: Test A postemergence, giant foxtail; settings: 0 to 100 scale, 0 no effect, 100 complete control
How it was run: as §1

[12] = tested on: pigweed (Amaranthus retroflexus); assay: Test A postemergence, pigweed; settings: 0 to 100 scale, 0 no effect, 100 complete control
How it was run: as §1

[13] = tested on: wheat (Triticum aestivum); assay: Test A postemergence, wheat; settings: 0 to 100 scale, 0 no effect, 100 complete control
How it was run: as §1

[14] = tested on: corn (Zea mays); assay: Test A postemergence, corn; settings: 0 to 100 scale, 0 no effect, 100 complete control
How it was run: as §1

[15] = tested on: blackgrass (Alopecurus myosuroides); assay: Test A postemergence, blackgrass; settings: 0 to 100 scale, 0 no effect, 100 complete control
How it was run: as §1

[16] = tested on: galium (catchweed bedstraw, Galium aparine); assay: Test A postemergence, galium; settings: 0 to 100 scale, 0 no effect, 100 complete control
How it was run: as §1

[17] = tested on: rice (Oryza sativa); assay: Test B flooded paddy test, rice; settings: Flood, 250 g ai/ha, applied to paddy water, 2-leaf stage, visual evaluation after 13 to 15 d
How it was run: (§2)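 2-leaf seedlings; pots flooded 3 cm above soil; compound added straight to paddy water; depth maintained. Greenhouse 13–15 d. Visual rating vs controls, 0–100 scale (0 = no effect, 100 = complete control).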

[18] = tested on: sedge, umbrella (small-flower umbrella sedge, Cyperus difformis); assay: Test B flooded paddy test, umbrella sedge; settings: Flood, 250 g ai/ha, applied to paddy water, 2-leaf stage, visual evaluation after 13 to 15 d
How it was run: as §2

[19] = tested on: ducksalad (Heteranthera limosa); assay: Test B flooded paddy test, ducksalad; settings: Flood, 250 g ai/ha, applied to paddy water, 2-leaf stage, visual evaluation after 13 to 15 d
How it was run: as §2

[20] = tested on: barnyardgrass (Echinochloa crus-galli); assay: Test B flooded paddy test, barnyardgrass; settings: Flood, 250 g ai/ha, applied to paddy water, 2-leaf stage, visual evaluation after 13 to 15 d
How it was run: as §2

Structure (SMILES) | Barnyardgrass plant response rating ([1]; 125 g ai/ha) | Kochia plant response rating ([2]; 125 g ai/ha) | Ragweed plant response rating ([3]; 125 g ai/ha) | Ryegrass, Italian plant response rating ([4]; 125 g ai/ha) | Foxtail, Giant plant response rating ([5]; 125 g ai/ha) | Pigweed plant response rating ([6]; 125 g ai/ha) | Plant response rating, Barnyardgrass ([7]; 125 g ai/ha) | Plant response rating, Kochia ([8]; 125 g ai/ha) | Plant response rating, Ragweed ([9]; 125 g ai/ha) | Plant response rating, Ryegrass, Italian ([10]; 125 g ai/ha) | Plant response rating, Foxtail, Giant ([11]; 125 g ai/ha) | Plant response rating, Pigweed ([12]; 125 g ai/ha) | Plant response rating, Wheat ([13]; 125 g ai/ha) | Plant response rating, Corn ([14]; 125 g ai/ha) | Plant response rating, Blackgrass ([15]; 125 g ai/ha) | Plant response rating, Galium ([16]; 125 g ai/ha) | Plant response rating, Rice (0 to 100 scale, 0 is no effect, 100 is complete control) [17] | Plant response rating, Sedge, Umbrella (0 to 100 scale, 0 is no effect, 100 is complete control) [18] | Plant response rating, Ducksalad (0 to 100 scale, 0 is no effect, 100 is complete control) [19] | Plant response rating, Barnyardgrass (0 to 100 scale, 0 is no effect, 100 is complete control) [20] | other results
CC(Nc1ncc(C(F)(F)F)c(N)n1)c1cc2c(Cl)cccc2o1 (stereo not drawn) [Compound 100] | 60 | 90 | 50 | 0 | 90 | 100 | 30 | 60 | 60 | 40 | 20 | 100 | 50 | 0 | 30 | 100 | 0 | 35 | 20 | 45 | Barnyardgrass plant response rating ([1]; 500 g ai/ha): 90; Kochia plant response rating ([2]; 500 g ai/ha): 90; Ragweed plant response rating ([3]; 500 g ai/ha): 100; Ryegrass, Italian plant response rating ([4]; 500 g ai/ha): 90; Foxtail, Giant plant response rating ([5]; 500 g ai/ha): 100; Pigweed plant response rating ([6]; 500 g ai/ha): 100; Plant response rating, Barnyardgrass ([7]; 500 g ai/ha): 90; Plant response rating, Kochia ([8]; 500 g ai/ha): 100; Plant response rating, Ragweed ([9]; 500 g ai/ha): 100; Plant response rating, Ryegrass, Italian ([10]; 500 g ai/ha): 70; Plant response rating, Foxtail, Giant ([11]; 500 g ai/ha): 50; Plant response rating, Pigweed ([12]; 500 g ai/ha): 100; Plant response rating, Wheat ([13]; 500 g ai/ha): 40; Plant response rating, Corn ([14]; 500 g ai/ha): 20; Plant response rating, Blackgrass ([15]; 500 g ai/ha): 70; Plant response rating, Galium ([16]; 500 g ai/ha): 100
CC(Nc1ncc(C(F)(F)F)c(N)n1)c1cc2ccc(Cl)cc2s1 (racemic) [Compound 70] | 0 | 0 | 20 | 0 | 0 | 30 | 20 | 50 | 0 | 0 | 0 | 100 | 0 | 0 | 0 | 0 | 0 | 0 | 0 | 0 | Barnyardgrass plant response rating ([1]; 500 g ai/ha): 30; Kochia plant response rating ([2]; 500 g ai/ha): 40; Ragweed plant response rating ([3]; 500 g ai/ha): 90; Ryegrass, Italian plant response rating ([4]; 500 g ai/ha): 0; Foxtail, Giant plant response rating ([5]; 500 g ai/ha): 50; Pigweed plant response rating ([6]; 500 g ai/ha): 90; Plant response rating, Barnyardgrass ([7]; 500 g ai/ha): 70; Plant response rating, Kochia ([8]; 500 g ai/ha): 80; Plant response rating, Ragweed ([9]; 500 g ai/ha): 50; Plant response rating, Ryegrass, Italian ([10]; 500 g ai/ha): 0; Plant response rating, Foxtail, Giant ([11]; 500 g ai/ha): 60; Plant response rating, Pigweed ([12]; 500 g ai/ha): 100; Plant response rating, Wheat ([13]; 500 g ai/ha): 0; Plant response rating, Corn ([14]; 500 g ai/ha): 0; Plant response rating, Blackgrass ([15]; 500 g ai/ha): 30; Plant response rating, Galium ([16]; 500 g ai/ha): 80
C[C@@H](Nc1ncc(C#N)c(N)n1)c1cc2ccccc2s1 [Compound 104] | 0 | 30 | 60 | 30 | 20 | 50 | 0 | 10 | 20 | 0 | 0 | 80 | 0 | 0 | 0 | 40 | 0 | 0 | 0 | 0 | Barnyardgrass plant response rating ([1]; 500 g ai/ha): 0; Kochia plant response rating ([2]; 500 g ai/ha): 90; Ragweed plant response rating ([3]; 500 g ai/ha): 100; Ryegrass, Italian plant response rating ([4]; 500 g ai/ha): 60; Foxtail, Giant plant response rating ([5]; 500 g ai/ha): 60; Pigweed plant response rating ([6]; 500 g ai/ha): 80; Plant response rating, Barnyardgrass ([7]; 500 g ai/ha): 20; Plant response rating, Kochia ([8]; 500 g ai/ha): 60; Plant response rating, Ragweed ([9]; 500 g ai/ha): 80; Plant response rating, Ryegrass, Italian ([10]; 500 g ai/ha): 70; Plant response rating, Foxtail, Giant ([11]; 500 g ai/ha): 20; Plant response rating, Pigweed ([12]; 500 g ai/ha): 100; Plant response rating, Wheat ([13]; 500 g ai/ha): 0; Plant response rating, Corn ([14]; 500 g ai/ha): 0; Plant response rating, Blackgrass ([15]; 500 g ai/ha): 20; Plant response rating, Galium ([16]; 500 g ai/ha): 80
CC(F)c1nc(N[C@H](C)c2cc3ccccc3o2)nc(N)c1C(F)(F)F (stereo partly drawn) [Compound 112] | 0 | 70 | 30 | 0 | 0 | 80 | 0 | 60 | 0 | 0 | 0 | 60 | 0 | 0 | 0 | 60 | 0 | 0 | 0 | 0 | Barnyardgrass plant response rating ([1]; 31 g ai/ha): 0; Kochia plant response rating ([2]; 31 g ai/ha): 0; Ragweed plant response rating ([3]; 31 g ai/ha): 0; Ryegrass, Italian plant response rating ([4]; 31 g ai/ha): 0; Foxtail, Giant plant response rating ([5]; 31 g ai/ha): 0; Pigweed plant response rating ([6]; 31 g ai/ha): 0; Plant response rating, Barnyardgrass ([7]; 31 g ai/ha): 0; Plant response rating, Kochia ([8]; 31 g ai/ha): 10; Plant response rating, Ragweed ([9]; 31 g ai/ha): 0; Plant response rating, Ryegrass, Italian ([10]; 31 g ai/ha): 0; Plant response rating, Foxtail, Giant ([11]; 31 g ai/ha): 0; Plant response rating, Pigweed ([12]; 31 g ai/ha): 30; Plant response rating, Wheat ([13]; 31 g ai/ha): 0; Plant response rating, Corn ([14]; 31 g ai/ha): 30; Plant response rating, Blackgrass ([15]; 31 g ai/ha): 0; Plant response rating, Galium ([16]; 31 g ai/ha): 20
CC(Nc1ncc(C(F)(F)F)c(N)n1)c1coc2cc(Cl)ccc12 (racemic) [Compound 77] | 0 | 50 | 80 | 20 | 20 | 40 | 0 | 30 | 20 | 0 | 0 | 70 | 20 | 0 | 0 | 50 | 0 | 0 | 0 | 0 | Barnyardgrass plant response rating ([1]; 500 g ai/ha): 0; Kochia plant response rating ([2]; 500 g ai/ha): 60; Ragweed plant response rating ([3]; 500 g ai/ha): 90; Ryegrass, Italian plant response rating ([4]; 500 g ai/ha): 30; Foxtail, Giant plant response rating ([5]; 500 g ai/ha): 40; Pigweed plant response rating ([6]; 500 g ai/ha): 90; Plant response rating, Barnyardgrass ([7]; 500 g ai/ha): 0; Plant response rating, Kochia ([8]; 500 g ai/ha): 90; Plant response rating, Ragweed ([9]; 500 g ai/ha): 90; Plant response rating, Ryegrass, Italian ([10]; 500 g ai/ha): 40; Plant response rating, Foxtail, Giant ([11]; 500 g ai/ha): 20; Plant response rating, Pigweed ([12]; 500 g ai/ha): 100; Plant response rating, Wheat ([13]; 500 g ai/ha): 30; Plant response rating, Corn ([14]; 500 g ai/ha): 20; Plant response rating, Blackgrass ([15]; 500 g ai/ha): 0; Plant response rating, Galium ([16]; 500 g ai/ha): 80
